Measurements reported in PMC12235690 (Journal of Proteome Research, 2025).
Numbered stars: 1 amine (or outer) side, 2 acyl side, 3 side chain; on linkers, the order of the positions; unused ones are H or OH. Square brackets hold non-standard residues; d marks the D form. Side chains are listed from the residue outwards. Peptide text beside a SMILES is read from it. * marks the point of attachment. Biotin = O=C1N[C@H]2[C@H](CS[C@H]2CCCCC(=O)*)N1; γGlu = O=C(O)[C@H](CCC(=O)[*:2])N[*:1]; Palmitoyl = CCCCCCCCCCCCCCCC(=O)*; PhLac = O=C(O)[C@@H](O)Cc1ccccc1; PEG4 = NCCOCCOCCOCCOCCC(=O)O

Columns and labels:
[1] = molecular target: GLP-1R S444A (Homo sapiens, UniProt P43220, S444A); experiment: cell-based; conditions: read-out: cAMP Emax Mean
[2] = molecular target: GLP-1R S445A (Homo sapiens, UniProt P43220, S445A); experiment: cell-based; conditions: read-out: cAMP Emax Mean
Description: (§1) Transfection for pharmacology experiments was conducted as previously described using FuGENE 6 (Promega, #E2691). […] Subsequently, 240 μL of room-temperature FuGENE 6 (Promega, #E2691) was added to the medium, mixed by inversion, and allowed to rest at room temperature for 5 min. 40 μg of the plasmid of interest was added to the FuGENE 6 containing medium, mixed by inversion, and allowed to rest at room temperature for 15–20 min.
(§2) HEK Freestyle cells (ThermoFisher Scientific, #R79007) seeded in suspension at a density of 250,000 cells/mL were transiently transfected with indicated receptor constructs using Fugene-6 reagent (Promega, #E2691). […] Cells were then lysed via sequential addition of d2-labeled cAMP competitor conjugate and cryptate-conjugated detection antibody (Revity, #62AM4PEC), then incubated for 1 h at room temperature with subsequent quantification of time-resolved fluorescence resonance energy transfer using an Envision plate reader and calibration to external synthetic cAMP standards in a parallel processed plate.

[3] = molecular target: GLP-1R WT (Homo sapiens, UniProt P43220); experiment: cell-based; conditions: read-out: cAMP Emax Mean
Description: as §1, §2

[4] = molecular target: GLP-1R_TEV_FLAG C-tail (Homo sapiens, UniProt P43220); conditions: WT GLP-1R_TEV C-tail; 1 μM ligand, 10 min 37 °C, FreeStyle 293 cells, LC-PRM, relative to DMSO
[5] = molecular target: GLP-1R 3S→A (S442A/S444A/S445A) (Homo sapiens, UniProt P43220, S442A/S444A/S445A); experiment: cell-based; conditions: read-out: cAMP Emax Mean
[6] = molecular target: GLP-1R S442A (Homo sapiens, UniProt P43220, S442A); experiment: cell-based; conditions: read-out: cAMP Emax Mean
[7] = molecular target: T1, GCGR (Homo sapiens, UniProt P47871); experiment: GCGR cAMP accumulation, antagonist mode, native and biotinylated peptides; assay type: cell-based; conditions: HTRF, HEK Freestyle cells, arithmetic mean, n=3
Description: HEK Freestyle cells (ThermoFisher Scientific, #R79007) seeded in suspension at a density of 250,000 cells/mL were transiently transfected with indicated receptor constructs using Fugene-6 reagent (Promega, #E2691). After 48 h, cells were pelleted and resuspended in assay buffer (DMEM, #Gibco 31053) containing 0.1% casein. Cells were then added at 1000 cells/well to 384-well white microplates (Costar, #3570) containing a range of agonist concentrations prepared via acoustic direct dilution in assay buffer containing 250 μM IBMX (total reaction volume of 20 μL), followed by incubation at 37 °C for 30 min. Cells were then lysed via sequential addition of d2-labeled cAMP competitor conjugate and cryptate-conjugated detection antibody (Revity, #62AM4PEC), then incubated for 1 h at room temperature with subsequent quantification of time-resolved fluorescence resonance energy transfer using an Envision plate reader and calibration to external synthetic cAMP standards in a parallel processed plate. Normalized percent values were fit to the 4-parameter logistic model using GraphPad Prism 10.1.2.
Figure S1. Enrichment of GCGR using biotinylated peptide ligands and bottom-up proteomic analysis of C-tail phosphorylation. A-B) GCGR cAMP accumulation was measured in (A) agonist mode and (B) antagonist mode using native and biotinylated peptides. Summary statistics for pharmacological […]

[8] = molecular target: T1, GCGR; experiment: GCGR cAMP accumulation, agonist mode, native and biotinylated peptides; assay type: cell-based; conditions: read-out: cAMP Emax Mean
Description: Figure S1. […] A-B) GCGR cAMP accumulation was measured in (A) agonist mode and (B) antagonist mode using native and biotinylated peptides.

T1 sequence (P47871 26-477): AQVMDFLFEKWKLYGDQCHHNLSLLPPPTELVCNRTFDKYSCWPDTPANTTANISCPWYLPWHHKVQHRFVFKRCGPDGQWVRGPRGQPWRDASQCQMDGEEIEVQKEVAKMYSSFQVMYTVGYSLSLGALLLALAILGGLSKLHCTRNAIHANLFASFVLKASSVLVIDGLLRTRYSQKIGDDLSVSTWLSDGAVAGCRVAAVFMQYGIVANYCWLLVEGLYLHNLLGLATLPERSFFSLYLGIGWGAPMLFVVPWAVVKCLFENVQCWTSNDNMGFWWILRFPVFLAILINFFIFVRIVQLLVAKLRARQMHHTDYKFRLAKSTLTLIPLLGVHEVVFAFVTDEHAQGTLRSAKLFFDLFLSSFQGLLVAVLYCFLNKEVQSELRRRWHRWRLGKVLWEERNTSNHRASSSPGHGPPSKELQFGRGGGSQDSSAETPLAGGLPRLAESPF
GLP-1R_TEV_FLAG C-tail, sequence (P43220 24-431 limits assumed): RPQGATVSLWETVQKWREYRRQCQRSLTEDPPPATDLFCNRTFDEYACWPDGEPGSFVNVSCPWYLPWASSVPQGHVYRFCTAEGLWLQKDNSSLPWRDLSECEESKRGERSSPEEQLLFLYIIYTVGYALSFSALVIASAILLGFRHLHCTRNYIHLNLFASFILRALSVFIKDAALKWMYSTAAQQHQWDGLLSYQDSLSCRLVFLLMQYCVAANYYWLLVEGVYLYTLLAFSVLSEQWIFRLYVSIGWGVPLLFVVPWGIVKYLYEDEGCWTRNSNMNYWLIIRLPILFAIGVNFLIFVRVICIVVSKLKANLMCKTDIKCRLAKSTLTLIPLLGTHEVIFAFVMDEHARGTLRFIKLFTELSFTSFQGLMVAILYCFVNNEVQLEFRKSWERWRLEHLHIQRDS
GLP-1R S442A, sequence (P43220 24-463 S442A): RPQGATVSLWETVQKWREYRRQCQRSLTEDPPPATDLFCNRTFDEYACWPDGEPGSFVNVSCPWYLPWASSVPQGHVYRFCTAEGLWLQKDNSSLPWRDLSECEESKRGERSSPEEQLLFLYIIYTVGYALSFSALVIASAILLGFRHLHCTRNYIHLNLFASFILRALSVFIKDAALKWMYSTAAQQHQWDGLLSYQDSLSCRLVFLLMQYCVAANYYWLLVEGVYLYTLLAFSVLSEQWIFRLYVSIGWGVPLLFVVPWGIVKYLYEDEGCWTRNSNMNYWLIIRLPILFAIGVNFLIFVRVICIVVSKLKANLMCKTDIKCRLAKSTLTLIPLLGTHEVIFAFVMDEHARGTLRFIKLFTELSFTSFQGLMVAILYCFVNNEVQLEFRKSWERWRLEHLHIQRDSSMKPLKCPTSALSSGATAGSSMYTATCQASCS
GLP-1R WT, sequence (P43220 24-463): as the sequence (P43220 24-463 S442A) above, with A419S counted along it
GLP-1R S445A, sequence (P43220 24-463 S445A): as the sequence (P43220 24-463 S442A) above, with A419S, S422A counted along it
GLP-1R S444A, sequence (P43220 24-463 S444A): as the sequence (P43220 24-463 S442A) above, with A419S, S421A counted along it
GLP-1R 3S→A (S442A/S444A/S445A), sequence (P43220 24-463 S442A/S444A/S445A): as the sequence (P43220 24-463 S442A) above, with S421A, S422A counted along it

## N#Cc1ccc(COc2cccc(C3CCN(Cc4nc5ccc(C(=O)O)cc5n4C[C@@H]4CCO4)CC3)n2)c(F)c1 [danuglipron]
[1]
  Emax: 127%
[2]
  Emax: 123%
[3]
  Emax: 99%
[4]
  increase in the percentage of phosphorylated GLP-1R proteoforms: 14.5%
[5]
  Emax: 130%
[6]
  Emax: 116%

## CSCC[C@H](NC(=O)[C@H](CC(C)C)NC(=O)[C@H](Cc1c[nH]c2ccccc12)NC(=O)[C@H](CCC(N)=O)NC(=O)[C@@H](NC(=O)[C@H](Cc1ccccc1)NC(=O)[C@H](CC(=O)O)NC(=O)[C@H](CCC(N)=O)NC(=O)[C@H](C)NC(=O)[C@H](CCCNC(=N)N)NC(=O)[C@H](CCCNC(=N)N)NC(=O)[C@H](CO)NC(=O)[C@H](CC(=O)O)NC(=O)[C@H](CC(C)C)NC(=O)[C@H](Cc1ccc(O)cc1)NC(=O)[C@H](CCCCN)NC(=O)[C@H](CO)NC(=O)[C@H](CCCCNC(=O)CCOCCOCCOCCOCCNC(=O)CCCC[C@@H]1SC[C@@H]2NC(=O)N[C@@H]21)NC(=O)[C@H](CC(=O)O)NC(=O)[C@H](CO)NC(=O)[C@@H](NC(=O)[C@@H](O)Cc1ccccc1)[C@@H](C)O)C(C)C)C(=O)N[C@@H](CC(=O)O)C(=O)N[C@H](C(N)=O)[C@@H](C)O [Biotin-GCGR antagonist] (H-[PhLac]TSDK([PEG4-Biotin])SKYLDSRRAQDFVQWLMDT-NH2)
[7]
  Emax: 120%

## CC[C@H](C)[C@H](NC(=O)[C@H](Cc1ccccc1)NC(=O)[C@@H](NC(=O)CNC(=O)[C@H](CCC(N)=O)NC(=O)C(C)(C)NC(=O)[C@@H](N)Cc1c[nH]cn1)[C@@H](C)O)C(=O)N[C@@H](CO)C(=O)N[C@@H](CC(=O)O)C(=O)N[C@@H](CCCCNC(=O)CCOCCOCCOCCOCCNC(=O)CCCC[C@@H]1SC[C@@H]2NC(=O)N[C@@H]21)C(=O)N[C@@H](CO)C(=O)N[C@@H](CCCCN)C(=O)N[C@@H](Cc1ccc(O)cc1)C(=O)N[C@@H](CC(C)C)C(=O)N[C@@H](CC(=O)O)C(=O)NC(C)(C)C(=O)N[C@@H](CCCNC(=N)N)C(=O)N[C@@H](C)C(=O)N[C@@H](C)C(=O)N[C@@H](CCC(N)=O)C(=O)N[C@@H](CC(=O)O)C(=O)N[C@@H](Cc1ccccc1)C(=O)N[C@H](C(=O)N[C@@H](CCC(N)=O)C(=O)N[C@@H](Cc1c[nH]c2ccccc12)C(=O)N[C@@H](CC(C)C)C(=O)N[C@@H](CCSC)C(=O)N[C@@H](CC(=O)O)C(=O)N[C@H](C(=O)O)[C@@H](C)O)C(C)C [Biotin-GCG]
[8]
  Emax: 124%

## CCCCCCCCCCCCCCCC(=O)N[C@@H](CCC(=O)N[C@@H](CCC(=O)NCCCC[C@H](NC(=O)[C@H](CC(=O)O)NC(=O)[C@H](CO)NC(=O)[C@@H](NC(=O)[C@@H](O)Cc1ccccc1)[C@@H](C)O)C(=O)N[C@@H](CO)C(=O)N[C@@H](CCCCN)C(=O)N[C@@H](Cc1ccc(O)cc1)C(=O)N[C@@H](CC(C)C)C(=O)N[C@@H](CC(=O)O)C(=O)N[C@@H](CO)C(=O)N[C@@H](CCCNC(=N)N)C(=O)N[C@@H](CCCNC(=N)N)C(=O)N[C@@H](C)C(=O)N[C@@H](CCC(N)=O)C(=O)N[C@@H](CC(=O)O)C(=O)N[C@@H](Cc1ccccc1)C(=O)N[C@H](C(=O)N[C@@H](CCC(N)=O)C(=O)N[C@@H](Cc1c[nH]c2ccccc12)C(=O)N[C@@H](CC(C)C)C(=O)N[C@@H](CCSC)C(=O)N[C@@H](CC(=O)O)C(=O)N[C@H](C(N)=O)[C@@H](C)O)C(C)C)C(=O)O)C(=O)O [GCGR Antagonist] (H-[PhLac]TSDK([γGlu-γGlu-Palmitoyl])SKYLDSRRAQDFVQWLMDT-NH2)
[7]
  Emax: 116%
